Measurements from US8772348B2, “Materials and methods for pest control” (priority 2009, dated 2014).
Where two headings read alike, the source gives them in different places.

Legend:
Aedes aegypti [1] = details: EC formulation on military fabric
Procedure: (§1) A commercially-available permethrin 57 g L^−1 EC (Ectiban EC 57; Universal Cooperatives, Minneapolis, Minn.) was included for comparison. Except rosalva, the 50% EC semiochemical formulations were generated by combining 500 mL AI, 430 mL canola oil (Publix, Lakeland, Fla.), 10 mL xylene, 50 mL Triton X-100 (Acros Organics Nev., Fair Lawn, N.J.) and 10 mL Agsolex-8 (International Specialty Products, Wayne, N.J.). The rosalva formulation contained all of the above-mentioned ingredients, with canola oil concentration reduced to 400 mL L^−1, Triton X-100 concentration increased to 75 mL L^−1, and 5 mL L^−1 Antifoam B silicone emulsion (Mallinckrodt Baker, Phillipsburg, N.Y.) included.
Briefly, a piece of 10×10 cm^2 fabric (TenCate Defender™) is impregnated with 2 ml of serially diluted 20-emulsifiable concentrate or 50-emulsifiable concentrate formulations, respectively, and subsequently dried for about an hour. Also, six-to-ten-day-old, never blood-fed, adult female Ae. aegypti mosquitoes are obtained. The mosquitoes are divided into seven sets: three sets as the experiment, three sets as the positive control, and one set as the negative control. Each set consists of 20 mosquitoes. […] The positive control set is exposed to fabric pieces treated with geranyl acetone, rosalva or citronellol. The negative control set is exposed to fabric pieces treated with acetone solution. Throughout the exposure periods, each set is provided with 10% sucrose solution and sufficient air circulation. Ataxic mosquitoes are considered dead. The mortality rate and the LC values are determined using the same procedures as are illustrated in Example 2.

Aedes albopictus = details: for mortality at the 24-hour examination: 24-hour exposure
Text: (§2) Briefly, Anopheles quadrimaculatus (Say) is obtained from the United States Department of Agriculture, ARS, Center for Medical, Agricultural and Veterinary Entomology, Gainesville, Fla., and adults are held in the laboratory of the Entomology and Nematology Department, University of Florida with no insecticide exposure or introduction of other insects. The Asian tiger mosquito, Ae. albopictus (Skuse) is obtained from a laboratory colony of the Entomology and Nematology Department, University of Florida.
(§3) Each strain is divided into four sets: three sets as the experiment and the other set as the control. […] The mortality rate is measured after a 2-hour, 4-hour, and 24-hour exposure period. Ataxic mosquitoes are considered dead. The mortality rate and the LC values are determined using the same procedures as is illustrated in Example 2.

[2] = tested on: Anopheles quadrimaculatus; details: for mortality at the 24-hour examination: 24-hour exposure
Text: as §2, §3

Aedes aegypti [3] = details: for % mortality on various days following treatment: formulation on military fabric at LC99-based concentration, 2 h exposure, mortality 24 h after initial exposure
Procedure: Briefly, after mosquitoes are exposed to formulations for 2 hours at a concentration of LC99, each set is transferred into a separate glass jar, and held for another 24 hours. The mortality rate is measured with new mosquitoes on post-treatment days 2, 3, 5, 8 and 14 (Day 1 starts at 24 hours after the transfer), and is determined using the same procedures as are illustrated in Example 2.
Concentrations were generated from technical-based LC99 values obtained from a 2 h exposure period on military fabric. Fabric was treated on day 0 and was held until exposure on post-treatment day. Mosquitoes were exposed for 2 h, and mortality rate was assessed 24 h after initial exposure. Control contained formulation ingredients without semiochemicals.

[4] = tested on: Susceptible Musca domestica; assay: Contact bioassay of emulsified concentrate formulations on filter paper discs; details: EC formulation on filter paper
Procedure: as §1
Briefly, Whatman No. 1 filter paper discs (63.58 cm^2) are impregnated with 1.5 ml serially diluted formulations in 20 emulsified concentrates and 50 emulsified concentrates, respectively, and subsequently dried for about an hour. Then, house flies are divided into seven sets: three sets as the experiment, three sets as the positive control, and one set as the negative control. Each set consists of twenty six-to-ten-day old adult flies. […] The positive control set is exposed to paper discs impregnated with geranyl acetone, rosalva or citronellol. The negative control set is exposed to paper discs impregnated with acetone solution. Throughout the exposure periods, each set is provided with 10% sucrose solution and sufficient air circulation. Ataxic flies are considered dead. The mortality rate and the LC values are determined using the same procedures as is illustrated in Example 2.

[5] = tested on: Field-collected Musca domestica; details: for % mortality: formulation on plywood panels, 3.33 mg/cm^2 (footnote 1.67)
Procedure: Briefly, one Musca domestica strain and one other Musca domestica strain are obtained as is illustrated in Example 3. Each fly strain is divided into seven sets: three sets as the experiment, three sets as the positive control, and one set as the negative control. Flies are assayed on unpainted plywood panel boards that have been previously exposed to natural summer weather conditions for at least 10 days. […] The formulation is applied at a uniform rate of 7.5 ml per 225 cm^2, sufficient to cover the entire panel without dripping. Subsequently, the treated panel boards are dried for about an hour.
In each set, 20 adult flies are placed onto panel boards. Flies are secured with wooden embroidery hoops, covered with a coarse mesh screen cloth previously sprayed with the respective formulation. After 4 hours, flies are transferred into a clean jar. The mortality rate is measured 24 hours after the transfer, and is determined using the same procedures as are illustrated in Example 2.
Plywood panels (225 cm^2) were treated with chemicals at a rate of 1.67 mg cm^−2. Panels were treated on day 0 and was held until exposure on post-treatment day. Mosquitoes were exposed to chemicals for 2 h, and mortality rate was assessed 24 h after initial exposure. Control contained formulation ingredients without semiochemicals.

[6] = tested on: Susceptible Musca domestica; details: for % mortality on various days following treatment: formulation on filter paper at LC99-based concentration of each compound
Procedure: Briefly, after Musca domestica is exposed to formulations for 24 hours at the LC99 concentration specific for each compound, each set of flies is transferred into a separate glass jar, and held for another 24 hours when mortality is scored. The mortality rate is measured on multiple days with new sets of flies up to 14 days (Day 1 starts at 24 hours after the transfer). The mortality rate is determined using the same procedures as is illustrated in Example 2.
Concentrations were generated from technical-based LC99 values obtained following a 24 h-exposure period on filter paper. Paper was treated on day 0 and was held until exposure on post-treatment day. Control contained formulation ingredients without semiochemicals.

[7] = tested on: honey bees, Apis mellifera; assay: Olfactory response assay in MEDUSA olfactometer, honey bee behaviors; type: in vivo; details: 0.25 mg semiochemical on perfumery strips; F7.72=0.705, p=0.67; data not shown

Compound: CC1(C)CCCC2=C1CC(C=O)CC2 (centres unmarked) [Cyclemone A, 2-naphthaldehyde, 1,2,3,4,5,6,7,8-octahydro-8,8-dimethyl]
- LC50 (Aedes aegypti [1]; exposure period 2 hours): 180.23 μg cm^−2
- LC90 (Aedes aegypti [1]; exposure period 2 hours): 452.11 μg cm^−2
- LC50 (Aedes aegypti [1]; exposure period 4 hours): 172.56 μg cm^−2
- LC90 (Aedes aegypti [1]; exposure period 4 hours): 488.13 μg cm^−2
- LC50 (Aedes aegypti [1]; exposure period 24 hours): 136.19 μg cm^−2
- LC90 (Aedes aegypti [1]; exposure period 24 hours): 330.22 μg cm^−2
- mortality at the 24-hour examination (Aedes albopictus): All mosquitoes were dead
- LC50 (Aedes albopictus; 2 h constant exposure): 19.88 μg cm^−2
- LC50 (Aedes albopictus; 4 h constant exposure): 18.72 μg cm^−2
- mortality at the 24-hour examination [2]: All mosquitoes were dead
- LC50 ([2]; 2 h constant exposure): 14.29 μg cm^−2
- LC50 ([2]; 4 h constant exposure): 12.27 μg cm^−2
- % mortality on various days following treatment (Aedes aegypti [3]; day 1): 100.00a %
- % mortality on various days following treatment (Aedes aegypti [3]; day 2): 97.50a %
- % mortality on various days following treatment (Aedes aegypti [3]; day 3): 92.50a %
- % mortality on various days following treatment (Aedes aegypti [3]; day 5): 75.00a %
- % mortality on various days following treatment (Aedes aegypti [3]; day 8): 25.50ab %
- % mortality on various days following treatment (Aedes aegypti [3]; day 14): 17.50a %
- LC50 ([4]; 24 h constant exposure): 468.96 μg cm^−2
- LC90 ([4]; 24 h constant exposure): 759.00 μg cm^−2
- LC50 ([4]; 48 h constant exposure): 440.04 μg cm^−2
- LC90 ([4]; 48 h constant exposure): 659.92 μg cm^−2
- % mortality ([5]; Alachua strain): 100.00a %
- % mortality ([5]; Gilchrist strain): 95.00a %
- mortality rate ([6]; Day 1 and Day 2): 99%
- % mortality on various days following treatment ([6]; day 1): 96.25a %
- % mortality on various days following treatment ([6]; day 2): 90.00a %
- % mortality on various days following treatment ([6]; day 3): 80.00a %
- % mortality on various days following treatment ([6]; day 5): 77.50ab %
- % mortality on various days following treatment ([6]; day 7): 78.75a %
- % mortality on various days following treatment ([6]; day 8): 63.75a %
- % mortality on various days following treatment ([6]; day 14): 6.25ab %
- attraction or repellence of honey bees (contact seconds per hour) [7]: do not attract or repel honey bees

Compound: C/C=C/C(=O)C1=C(C)CCCC1(C)C [Beta damascone, beta damascone]
- LC90 (Aedes aegypti [1]; exposure period 2 hours): 910.52 μg cm^−2
- LC90 (Aedes aegypti [1]; exposure period 4 hours): 648.16 μg cm^−2
- LC90 (Aedes aegypti [1]; exposure period 24 hours): 534.26 μg cm^−2
- mortality at the 24-hour examination (Aedes albopictus): All mosquitoes were dead
- mortality at the 24-hour examination [2]: All mosquitoes were dead
- mortality rate (Aedes aegypti [3]; in vivo): above 90%
- LC90 ([4]; 24 h constant exposure): 618.12 μg cm^−2
- LC90 ([4]; 48 h constant exposure): 516.16 μg cm^−2
- mortality rate ([5]; in vivo): 95.0-100.0%
- mortality rate ([6]; in vivo): 99%
- attraction or repellence of honey bees (contact seconds per hour) [7]: do not attract or repel honey bees
